Data reported in article PMC9317316, “Synthesis and Evaluation of Some New 4H-Pyran Derivatives as Antioxidant, Antibacterial and Anti-HCT-116 Cells of CRC, with Molecular Docking, Antiproliferative, Apoptotic and ADME Investigations” (Pharmaceuticals, 2022).
Values joined by “and” are separate entries in the source; they are usually repeats but may differ in a detail not shown here. Equal entries are not always repeated. Where two headings read alike, the source gives them in different places.

Tests used:
S. aureus (ATCC 25923) [1] = assay: Antibacterial agar diffusion method (inhibition zone); assay type: cell-based
Method: (§1) The results for the in vitro antibacterial properties of the synthesized compounds against five Gram-positive and four Gram-negative human-pathogenic strains, which were assessed by both the agar diffusion method (based on inhibition zone (IZ)) and the broth dilution bioassay (for the determination of the half-maximal inhibitory concentration (IC50) values), using ampicillin as the reference antibiotic drug, are shown in Table 2 and Table 3.
(§2) The antibacterial activity of all synthesized compounds was evaluated against the Gram-negative strains E. coli (ATCC 25966), K. pneumonia (ATCC 700603), P. aeruginosa (ATCC 27853) and S. enteric (ATCC 43972) and against the Gram-positive strains B. cereus (ATCC 14579), B. subtilis (ATCC 6633), E. faecalis (ATCC 29122), S. aureus (ATCC 25923) and S. epidermidis (ATCC 14990), using the agar diffusion method through measuring the appearance of the inhibition zone on the surface of the top agar, as reported by Berghe and Vlietinck. Ampicillin (10 µg/well) was used as the positive reference standard. Bacterial viability was also investigated by determining the colony-forming ability (CFU) of bacteria incubated at different time intervals without or with appropriate amounts of the compound, which were mixed with 2 ×10^7 CFU/mL in sterile BHI and incubated under shaking for 60 min at 37 °C. Samples were serially diluted into sterile BHI, streaked onto media agar plates and incubated for 24 h at 37 °C. The antibacterial potency of the tested compounds was expressed as the residual number of CFUs with reference to the initial inoculums. The results presented as the half-maximal (50 %) inhibitory concentration (IC50) values are the means of three different measurements.

B. cereus (ATCC 14579) [2] = assay: as above; assay type: cell-based
Method: as §1, §2

B. subtilis (ATCC 6633) [3] = assay: as above; assay type: cell-based
Method: as §1, §2

[4] = test system: S. epidermidis (ATCC 14990); assay: as above; assay type: cell-based
Method: as §1, §2

E. faecalis (ATCC 29122) [5] = assay: as above; assay type: cell-based
Method: as §1, §2

[6] = test system: P. aeruginosa (ATCC 27853); assay: as above; assay type: cell-based
Method: as §1, §2

E. coli (ATCC 25966) [7] = assay: as above; assay type: cell-based; settings: E. coil (ATCC 25966)
Method: as §1, §2

[8] = test system: K. pneumonia (ATCC 700603); assay: as above; assay type: cell-based
Method: as §1, §2

[9] = DPPH radical scavenging assay; settings: for IC50: 0.03 to 1 mg/mL, 1 h, mean ± SD, triplicate, read-out: IC50 (mM) for DPPH Scavenging Potency
Method: The IC50 values for DPPH were calculated from the plot of the scavenging effect against the compound concentration.
The compounds’ capacities to scavenge the stable radical 1,1 diphenyl-2-picrylhydrazyl (DPPH) formed in solution by donation of a hydrogen atom or an electron was investigated according to the method described by Bersuder and coworkers. Due to the fact that the initial blue/purple solution of diphenyl picrylhydrazine changes to yellow in the presence of compounds with a capacity to scavenge DPPH free radicals, this reaction is used as a measure of a compound’s ability to scavenge any free radical. Briefly, a 0.5 mL volume of DPPH ethanolic solution was mixed with an equal volume of each sample concentration (0.03 to 1 mg/mL), shaken strongly and incubated at room temperature for 1 h in darkness. The absorbance of the residual DPPH radicals was measured at 519 nm and compared to that of the control (without the tested compound). DPPH radical scavenging was calculated using the following formula: Scavenging effect (%) = (1 − Acompound/AControl) × 100, where Acompound and Acontrol are the absorbances of the tested compound and of the control, respectively. A plot of the scavenging effect (%) versus the sample concentration was also performed to determine the compound concentration providing 50% inhibition (IC50).

S. aureus (ATCC 25923) [10] = assay: Antibacterial viability (CFU) assay, IC50; assay type: cell-based; settings: Staphylococcus aureus, ATCC25923
Method: as §1, §2

B. cereus (ATCC 14579) [11] = assay: Antibacterial viability (CFU) assay, IC50; assay type: cell-based; settings: Bacillus cereus, ATCC14579
Method: as §1, §2

S. enteric (ATCC 43972) [12] = assay: Antibacterial viability (CFU) assay, IC50; assay type: cell-based
Method: as §1, §2

B. subtilis (ATCC 6633) [13] = assay: Antibacterial viability (CFU) assay, IC50; assay type: cell-based
Method: as §1, §2

[14] = test system: S. epidermidis (ATCC 14990); assay: Antibacterial viability (CFU) assay, IC50; assay type: cell-based; settings: Staphylococcus epidermidis, ATCC14990
Method: as §1, §2

E. faecalis (ATCC 29122) [15] = assay: Antibacterial viability (CFU) assay, IC50; assay type: cell-based; settings: Enterococcus faecalis, ATCC29122
Method: as §1, §2

[16] = test system: P. aeruginosa (ATCC 27853); assay: Antibacterial viability (CFU) assay, IC50; assay type: cell-based; settings: Pseudomonas aeruginosa, ATCC27853
Method: as §1, §2

E. coli (ATCC 25966) [17] = assay: Antibacterial viability (CFU) assay, IC50; assay type: cell-based; settings: Escherichia coli, ATCC25966; E. coil (ATCC 25966)
Method: as §1, §2

[18] = test system: K. pneumonia (ATCC 700603); assay: Antibacterial viability (CFU) assay, IC50; assay type: cell-based; settings: Klebsiella pneumoniae, ATCC700603
Method: as §1, §2

HCT-116 cells = assay: Cell viability (cytotoxicity, LDH release) assay; assay type: cell-based; settings: Homo sapiens, 24 h; for viability at 100 µg/mL: read-out: percent of viable cells
Method: The synthesized compounds were also examined at four concentrations (10, 25, 50 and 100 µg/mL) for their cytotoxic effects on human colorectal cancer HCT-116 cells after their incubation together for 24 h.
Cytotoxic potency was examined for a human colon cancer cell line HCT-116 (American Type Culture Collection; Manassas, VA, USA) using various amounts of each compound (10, 25, 50 and 100 µg). Samples were diluted in Dulbecco’s Modified Eagle’s Medium, consisting of 10% Fetal Bovine Serum, and added to cells grown and cultured for 24 h in a 5% CO2-humidified incubator at 37 °C. Then, the activity of lactate dehydrogenase released from damaged cells was determined in the collected supernatant aliquots using an ELISA endpoint assay (Benchmark Plus, Bio-Rad, Hercules, CA, USA). As positive and negative controls, respectively, 0.1% Triton X-100 in the assay medium and the assay medium only were used. Cell viability, shown as mean values ± SDs (n = 3), was expressed as a relative percentage of the OD values determined at 600 nm in compound-treated cells and the control.

[19] = Reducing power assay (FRAC, Fe3+ to Fe2+); settings: 0-1 mg/mL, absorbance 700 nm
Method: Secondly, FRAC was determined over the concentration range of 0.0−1 mg/mL via monitoring Fe^3+−Fe^2+ transformation in the presence of the studied compounds and the reference antioxidant BHT to estimate the values of efficient concentration (EC50), expressed in mM.
The reducing power of the studied compounds was assessed according to Oyaizu’s method. Briefly, different concentrations (ranging from 0 to 1 mg/mL) of each tested compound were first mixed with 1 mL of 0.2 M sodium phosphate buffer (pH 6.6) and 1 mL of 1% potassium ferricyanide (K3Fe(CN)6) and incubated at 50 °C for 20 min. After the addition of 1.25 mL of 20% trichloroacetic acid (TCA), the mixture was centrifuged for 10 min at 3000 rpm and the upper layer solution was then mixed with 0.5 mL of 0.1% fresh ferric chloride and an equal volume of deionized water. Finally, the absorption of the resulting mixture was measured at 700 nm using a UV spectrophotometer against distilled water as the blank, while butylated hydroxytoluene (BHT) was used as a positive control. The sample ferric reducing power capability was indicated by increased absorbance.

S. enteric (ATCC 43972) [20] = assay: Antibacterial agar diffusion method (inhibition zone); assay type: cell-based
Method: as §1, §2

[21] = Bacillus subtilis, ATCC6633, B. subtilis (ATCC 6633)

Row | SMILES | IZ (mm) (S. aureus (ATCC 25923) [1]) | IZ (mm) (B. cereus (ATCC 14579) [2]) | IZ (mm) (B. subtilis (ATCC 6633) [3]) | IZ (mm) [4] | IZ (mm) (E. faecalis (ATCC 29122) [5]) | IZ (mm) [6] [mm] | IZ (mm) (E. coli (ATCC 25966) [7]) | IZ (mm) [8] [mm] | IC50 [9] [mM] | DPPH Radical Scavenging Effenciency (%) at 1 mg/mL [9] | IC50 (S. aureus (ATCC 25923) [10]) [µM] | IC50 (B. cereus (ATCC 14579) [11]) [µM] | IC50 (S. enteric (ATCC 43972) [12]; read-out: IC50) [µM] | IC50 (B. subtilis (ATCC 6633) [13]; [21]) [µM] | IC50 [14] [µM] | IC50 (E. faecalis (ATCC 29122) [15]) [µM] | IC50 [16] [µM] | IC50 (E. coli (ATCC 25966) [17]) [µM] | IC50 [18] [µM] | EC50 [19] [µM] | other results
1 | CCOC(=O)C1=C(C)OC(N)=C(C#N)C1c1cccc(OC)c1[N+](=O)[O-] (stereo not shown) [4b, 6-Amino-5-cyano-4-(3-methoxy-2-nitro-phenyl)-2-methyl-4H-pyran-3-carboxylic acid ethyl ester] | 20.50 ± 0.71 mm | 16.50 ± 0.71 mm | 19.50 ± 0.71 mm | 23.50 mm and 23.50 ± 0.71 mm | 15.50 ± 0.71 mm | 2.5 ± 0.7 | 2.5 ± 0.71 | 1.5 ± 0.7 | 2.56 ± 0.117 | 23.25 ± 1.06% | 50.2 ± 1.39 | 43.1 ± 1.98 | 118 ± 3.34 | 49.1 ± 1.39 | 32.4 ± 1.39 | 56.8 ± 1.59 | 84 ± 5.01 | 100 ± 3.9 | 99.1 ± 2.5 | 1200 ± 79 | melting point: 220 to 222 °C; viability at 100 µg/mL (HCT-116 cells): 11 to 32.5%; IC50 (HCT-116 cells; read-out: Mean IC50 (µM) of cytotoxicity): 102 ± 8.83 µM; IC50 (HCT-116 cells; read-out: Mean IC50 (µg/mL) of cytotoxicity): 36.5 ± 3.18 µg/mL
2 | CCOC(=O)C1=C(C)OC(N)=C(C#N)C1c1cccc(O)c1Cl (stereo not shown) [4g, 6-Amino-4-(2-chloro-3-hydroxy-phenyl)-5-cyano-2-methyl-4H-pyran-3-carboxylic acid ethyl ester] | 27.50 mm and 27.50 ± 0.71 mm | 29.00 mm and 29.00 ± 1.41 mm | 28.00 mm and 28.00 ± 1.41 mm | 29.75 mm and 29.75 ± 0.35 mm | 24.50 mm and 24.50 ± 0.71 mm | 13.5 ± 0.7 | 11.0 ± 1.41 | 11.5 ± 0.7 | 0.329 ± 0.042 | 90.50% and 90.50 ± 2.12% | 27.8 ± 1.25 | 29.4 ± 1.49 | 53 ± 3.29 | 25.7 ± 1.7 | 30.3 ± 1.49 | 31.8 ± 1.49 | 54.1 ± 4.48 | 61.8 ± 5.38 | 61.8 ± 2.99 | 72 ± 4 | melting point: 212 to 213 °C; IC50 (S. enteric (ATCC 43972) [12]): 54.1 µM; viability at 100 µg/mL (HCT-116 cells): 86%
3 | COc1ccc(C2C(C#N)=C(N)OC(C)=C2C(=O)OCc2ccccc2)cc1 (stereo not shown) [4j, 6-Amino-5-cyano-4-(4-methoxy-phenyl)-2-methyl-4H-pyran-3-carboxylic acid benzyl ester] | 25.25 mm and 25.25 ± 1.06 mm | 24.50 mm and 24.50 ± 0.71 mm | 21.50 mm and 21.50 ± 0.71 mm | 26.65 mm and 26.65 ± 0.92 mm | 23.20 mm and 23.20 ± 0.57 mm | 14.5 ± 0.7 | 10.5 ± 0.71 | 12.0 ± 1.4 | 0.194 | 88.00% and 88.00 ± 1.41% | 33.3 ± 1.7 | 27.6 ± 1.51 | 51.8 ± 2.92 | 23.6 to 36.8 | 33.3 ± 1.7 | 28.2 ± 1.51 | 49.7 ± 4.78 | 57.1 ± 0.8 | 48.4 ± 3.99 | 74 ± 4 | melting point: 170 to 172 °C; IC50 (S. enteric (ATCC 43972) [12]): 49.7 µM; IC50 (B. subtilis (ATCC 6633) [13]; B. subtilis (ATCC 6633)): 23.6 ± 0.37 µM; viability at 100 µg/mL (HCT-116 cells): 94%
4 | CC1(C)S[C@@H]2[C@H](NC(=O)[C@H](N)c3ccccc3)C(=O)N2[C@H]1C(=O)O [Ampicillin, reference compound] | 21.50 ± 0.71 mm | 23.50 ± 0.71 mm | 25.50 ± 0.71 mm | 22.50 ± 0.71 mm | 24.50 ± 0.71 mm | 21.5 ± 0.7 | 23.5 ± 0.71 | 21.0 ± 1.4 | – | – | 38.6 ± 2 | 25.8 ± 0.57 | 14.9 ± 0.34 | 37.2 ± 1.43 | 50.1 ± 3.43 | 36.5 ± 3.03 | 41.5 ± 1.72 | 58 ± 4.87 | 32.9 ± 2.29 | – | IZ (mm) (S. aureus (ATCC 25923) [1]; listed as ampicillin): 21.50 mm; IZ (mm) (B. cereus (ATCC 14579) [2]; listed as ampicillin): 23.50 mm; IZ (mm) (S. enteric (ATCC 43972) [20]): 19.5 ± 0.7 mm; IZ (mm) (B. subtilis (ATCC 6633) [3]; listed as ampicillin): 25.50 mm; IZ (mm) ([4]; listed as ampicillin): 22.50 mm; IZ (mm) (E. faecalis (ATCC 29122) [5]; listed as ampicillin): 24.50 mm
5 | Cc1cc(C(C)(C)C)c(O)c(C(C)(C)C)c1 [BHT, butylated hydroxytoluene, reference compound] | – | – | – | – | – | – | – | – | 0.245 ± 0.027 | 95.30% and 95.30 ± 0.42% | – | – | – | – | – | – | – | – | – | 89 ± 3 | –
